Test results taken from publication PMC9964319, “Half-Sandwich Rhodium Complexes with Releasable N-Donor Monodentate Ligands: Solution Chemical Properties and the Possibility for Acidosis Activation” (Pharmaceutics, 2023).
Values after ≈ are worked out from the molar mass of the structure shown. Like-named read-outs stand apart in the source and are kept apart here.

What was measured:
Assay type in all cases: cell-based
[1] = tested on: E. coli 32313 (resistant); experiment: Antibacterial assay, MIC in 96-well plates at different pH
Source text: (§1) The antibacterial effect was studied in two Gram-positive and in two Gram-negative strains. The Gram-positive S. aureus ATCC 25923 (ATCC, Manassas, VA, USA) is a methicillin-susceptible reference bacterial strain, while S. aureus 272123 is a clinical isolate and resistant to methicillin and ofloxacin (MRSA), which was given by Prof. Dr. Leonard Amaral (Institute of Hygiene and Tropical Medicine, Lisbon, Portugal). The Gram-negative strains were E. coli ATCC 25922 (ATCC, Manassas, VA, USA), which is sensitive to antibiotics, and E. coli 32313 (provided by the Institute of Clinical Microbiology, University of Szeged, Hungary), which is resistant to different antibiotics (trimethoprim/sulfamethoxazole, gentamicin, ciprofloxacin, and norfloxacin).
(§2) The minimum inhibitory concentrations (MICs) of the compounds were determined in 96-well plates based on the Clinical and Laboratory Standard Institute guidelines. The compounds were diluted in 100 μL of Mueller Hinton broth. Then, an overnight bacterial culture diluted 10,000 times in 100 μL of medium was added to each well, with the exception of the medium control wells. For each strain and each tested compound, four pH values were set (5, 6, 7, and 8). Each sample was triplicated.

[2] = tested on: E. coli ATCC 25922 (sensitive); experiment: as above
Source text: as §1, §2

S. aureus 272123 (MRSA) = experiment: as above
Source text: as §1, §2

[3] = tested on: S. aureus ATCC 25923 (methicillin-susceptible); experiment: as above
Source text: as §1, §2

[4] = tested on: Colo320 human colon adenocarcinoma cell line (doxorubicin-resistant); experiment: MTT assay, cytotoxicity at pH 6 and 7; conditions: Colo320, 72 h incubation, read-out: IC50
Experimental: (§3) All cell culture reagents were obtained from Sigma-Aldrich (Merck KGaA, Darmstadt, Germany) and plasticware from Sarstedt (Nümbrecht, Germany). Human colonic adenocarcinoma cell lines Colo205 (catalog number: ATCC-CCL-222) and its doxorubicin-resistant counterpart Colo320 (catalog number: ATCC-CCL-220.1) were purchased from LGC Promochem (Teddington, UK). The cells were cultured in RPMI 1640 medium supplemented with 10% heat-inactivated fetal bovine serum, 2 mM L-glutamine, 1 mM sodium pyruvate, and 100 mM HEPES buffer, adjusting the pH to 6.0 or 7.0. The cells were incubated at 37 °C in a 5% CO2–95% air atmosphere. The semiadherent human colon cancer cells were detached with Trypsin-Versene solution for 5 min at 37 °C.
(§4) The solutions were freshly prepared prior to measurements (see Section 2.1). […] Firstly, these samples were diluted in complete culture medium; then, two-fold serial dilutions of the compounds were prepared in 100 μL of RPMI 1640, horizontally. The semiadherent colonic adenocarcinoma cells were treated with Trypsin-Versene solution. They were adjusted to a density of 1 × 10^4 cells in 100 μL of RPMI 1640 medium and were added to each well, with the exception of the medium control wells. The final volume of the wells containing compounds and cells was 200 μL. Samples were triplicated. The pH of the medium was adjusted to 6.0 or 7.0.
(§5) The culture plates were incubated at 37 °C for 72 h; at the end of the incubation period, 20 μL of MTT solution (from a stock solution of 5 mg/mL) was added to each well. After incubation at 37 °C for 4 h, 100 μL of SDS solution (10% in 0.01 M HCI) was added to each well, and the plates were further incubated at 37 °C overnight. Cell growth was determined by measuring the optical density (OD) at 540/630 nm with a Multiscan EX ELISA reader (Thermo Labsystems, Cheshire, WA, USA). […] Curves were fitted using GraphPad Prism software (2022, version 9.4.1, Graphpad Software (LLC) d.b.a Dotmatics, San Diego, CA, USA) using the sigmoidal dose–response model (comparing variable and fixed slopes).
(§6) The pH-dependent solution speciation of the selected mixed-ligand complexes is an important feature in the hypothesized mechanism of action, and the modeling of acidosis is necessary for the in vitro anticancer assays. In order to find out the cytotoxicity difference based on the pH of the medium, cytotoxic activity was determined at pH 6 and 7 by MTT assay in two human colon adenocarcinoma cell lines (doxorubicin-sensitive Colo205 and doxorubicin-resistant Colo320). […] The mixed-ligand complexes were prepared prior to the measurements, as was already described in Section 2.1. With this method, the effect of the different counter ions could be avoided, and a more adequate comparison of the mixed-ligand complexes could be conducted.

[5] = tested on: Colo205 human colon adenocarcinoma cell line (doxorubicin-sensitive); experiment: MTT assay, cytotoxicity at pH 6 and 7; conditions: Colo205, 72 h incubation, read-out: IC50
Experimental: as §3, §4, §5, §6

[6] = E. coli resistant, pH 6, after one day, read-out: MIC
[7] = E. coli resistant, pH 7, after one day, read-out: MIC
[8] = E. coli sensitive, pH 6, after one day, read-out: MIC
[9] = E. coli sensitive, pH 7, after one day, read-out: MIC
[10] = Escherichia coli, 24 h, E. coli resistant, pH 5, after one day, read-out: MIC
[11] = Escherichia coli, 24 h, E. coli resistant, pH 6, after one day, read-out: MIC
[12] = Escherichia coli, 24 h, E. coli resistant, pH 7, after one day, read-out: MIC
[13] = Escherichia coli, 24 h, E. coli resistant, pH 8, after one day, read-out: MIC
[14] = Escherichia coli, ATCC25922, 24 h, E. coli sensitive, pH 5, after one day, read-out: MIC
[15] = Escherichia coli, ATCC25922, 24 h, E. coli sensitive, pH 6, after one day, read-out: MIC
[16] = Escherichia coli, ATCC25922, 24 h, E. coli sensitive, pH 7, after one day, read-out: MIC
[17] = Escherichia coli, ATCC25922, 24 h, E. coli sensitive, pH 8, after one day, read-out: MIC
[18] = Staphylococcus aureus, 24 h, pH 5, after one day, read-out: MIC
[19] = Staphylococcus aureus, 24 h, pH 6, after one day, read-out: MIC
[20] = Staphylococcus aureus, 24 h, pH 7, after one day, read-out: MIC
[21] = Staphylococcus aureus, 24 h, pH 8, after one day, read-out: MIC
[22] = Staphylococcus aureus, ATCC25923, 24 h, S. aureus sensitive, pH 7, after one day, read-out: MIC
[23] = Staphylococcus aureus, ATCC25923, 24 h, S. aureus sensitive, pH 8, after one day, read-out: MIC

## Cc1c(C)c(C)[c-](C)c1C.Clc1ccc(COC(Cn2ccnc2)c2ccc(Cl)cc2Cl)cc1.[Cl-].[Rh+2][O]c1cccc2cccnc12 (racemic) [[RhCp*(8HQH−1)Cl] +econ]
[1]; E. coli resistant, pH 5, after one day, read-out: MIC
  MIC: 50 µM
[1]; [6]
  MIC: >100 µM
[1]; [7]
  MIC: >100 µM
[1]; E. coli resistant, pH 8, after one day, read-out: MIC
  MIC: 50 µM
[2]; E. coli sensitive, pH 5, after one day, read-out: MIC
  MIC: 25 µM
[2]; [8]
  MIC: 25 µM
[2]; [9]
  MIC: 25 µM
[2]; E. coli sensitive, pH 8, after one day, read-out: MIC
  MIC: 25 µM
S. aureus 272123 (MRSA); pH 5, after one day, read-out: MIC
  MIC: 12.5 µM
S. aureus 272123 (MRSA); pH 6, after one day, read-out: MIC
  MIC: 6.25 µM
S. aureus 272123 (MRSA); pH 7, after one day, read-out: MIC
  MIC: 3.125 µM
S. aureus 272123 (MRSA); pH 8, after one day, read-out: MIC
  MIC: 3.125 µM
[3]; S. aureus sensitive, pH 7, after one day, read-out: MIC
  MIC: 0.39 µM
[3]; S. aureus sensitive, pH 8, after one day, read-out: MIC
  MIC: 0.39 µM
[4]; pH 6
  IC50: 4.52 ± 0.04 µM
[4]; pH 7
  IC50: 3 ± 0.1 µM
[5]; pH 6, listed as [RhCp*(8HQH−1)(H2O)]^+ with econazole
  IC50: ~1.8 µM
[5]; pH 6
  IC50: 1.8 ± 0.1 µM
[5]; pH 7
  IC50: 3.3 ± 0.1 µM

## Oc1cccc2cccnc12 [Complex 8HQ, 8-hydroxyquinoline, reference compound]
[1]; Escherichia coli, 24 h, pH 5
  MIC: > 100 µM
[1]; Escherichia coli, 24 h, pH 6
  MIC: > 100 µM
[1]; Escherichia coli, 24 h, pH 7
  MIC: > 100 µM
[1]; Escherichia coli, 24 h, pH 8
  MIC: > 100 µM
[2]; Escherichia coli, ATCC25922, 24 h, pH 5
  MIC: > 100 µM
[2]; Escherichia coli, ATCC25922, 24 h, pH 6
  MIC: > 100 µM
[2]; Escherichia coli, ATCC25922, 24 h, pH 7
  MIC: > 100 µM
[2]; Escherichia coli, ATCC25922, 24 h, pH 8
  MIC: > 100 µM
S. aureus 272123 (MRSA); Staphylococcus aureus, 24 h, pH 5
  MIC: 100 µM
S. aureus 272123 (MRSA); Staphylococcus aureus, 24 h, pH 6
  MIC: 6.25 µM
S. aureus 272123 (MRSA); Staphylococcus aureus, 24 h, pH 7
  MIC: 6.25 µM
S. aureus 272123 (MRSA); Staphylococcus aureus, 24 h, pH 8
  MIC: 6.25 µM
[3]; Staphylococcus aureus, ATCC25923, 24 h, pH 7
  MIC: 25 µM
[3]; Staphylococcus aureus, ATCC25923, 24 h, pH 8
  MIC: 25 µM

## CC1=C(C)C(C)C(C)=C1C.Cn1ccnc1.Oc1cccc2cccnc12.[Rh+3] [[RhCp*(8HQH−1)(mim)]^+]
[4]; pH 6
  IC50: 6 ± 0.1 µM
[4]; pH 7
  IC50: 6.1 ± 0.2 µM
[5]; pH 6
  IC50: 7 ± 0.4 µM
[5]; pH 7
  IC50: 7.2 ± 0.2 µM

## CC1=C(C)C(C)C(C)=C1C.[Rh+3].c1ccncc1.c1cnc2c(c1)ccc1cccnc12 [[RhCp*(phen)(Py)]^2+]
[4]; pH 6
  IC50: 83.6 ± 4.1 µM
[4]; pH 7
  IC50: > 100 µM
[5]; pH 6
  IC50: > 100 µM
[5]; pH 7
  IC50: > 100 µM

## CC1=C(C)C(C)C(C)=C1C.Cn1ccnc1.[Rh+3].c1cnc2c(c1)ccc1cccnc12 [[RhCp*(phen)(mim)]^2+]
[4]; pH 6
  IC50: 71.7 ± 3.3 µM
[4]; pH 7
  IC50: > 100 µM
[5]; pH 6
  IC50: > 100 µM
[5]; pH 7
  IC50: > 100 µM

## COc1cccc2c1C(=O)c1c(O)c3c(c(O)c1C2=O)C[C@@](O)(C(=O)CO)C[C@@H]3O[C@H]1C[C@H](N)[C@H](O)[C@H](C)O1 [doxorubicin, reference compound]
[4]; Homo sapiens, COLO 320, pH 6
  IC50: 0.46 ± 0.02 µM
[5]; Homo sapiens, COLO 205, pH 6
  IC50: 7.6 ± 0.3 µM
[5]; Homo sapiens, COLO 205, pH 7
  IC50: 0.71 ± 0.02 µM

## Clc1ccc(COC(Cn2ccnc2)c2ccc(Cl)cc2Cl)cc1 (stereo not shown) [econ, econazole, reference compound]
[1]; [6]
  MIC: >100 µM
[1]; [7]
  MIC: >100 µM
[1]; [10]
  MIC: > 100 µM
[1]; [11]
  MIC: > 100 µM
[1]; [12]
  MIC: > 100 µM
[1]; [13]
  MIC: > 100 µM
[2]; [8]
  MIC: >100 µM
[2]; [9]
  MIC: >100 µM
[2]; [14]
  MIC: > 100 µM
[2]; [15]
  MIC: > 100 µM
[2]; [16]
  MIC: > 100 µM
[2]; [17]
  MIC: > 100 µM
S. aureus 272123 (MRSA); [18]
  MIC: 25 µM (≈ 9.54 µg/mL)
S. aureus 272123 (MRSA); [19]
  MIC: 12.5 µM (≈ 4.77 µg/mL)
S. aureus 272123 (MRSA); [20]
  MIC: 6.25 µM (≈ 2.39 µg/mL)
S. aureus 272123 (MRSA); [21]
  MIC: 3.12 µM (≈ 1.19 µg/mL)
[3]; [22]
  MIC: 0.78 µM (≈ 0.298 µg/mL)
[3]; [23]
  MIC: 0.19 µM (≈ 0.0725 µg/mL)

## c1cnc2c(c1)ccc1cccnc12 [phen, 1,10-phenanthroline, reference compound]
[1]; [10]
  MIC: 50 µM (≈ 9.01 µg/mL)
[1]; [11]
  MIC: 50 µM (≈ 9.01 µg/mL)
[1]; [12]
  MIC: 50 µM (≈ 9.01 µg/mL)
[1]; [13]
  MIC: 50 µM (≈ 9.01 µg/mL)
[2]; [14]
  MIC: 50 µM (≈ 9.01 µg/mL)
[2]; [15]
  MIC: 50 µM (≈ 9.01 µg/mL)
[2]; [16]
  MIC: 50 µM (≈ 9.01 µg/mL)
[2]; [17]
  MIC: 25 µM (≈ 4.51 µg/mL)
S. aureus 272123 (MRSA); [18]
  MIC: 50 µM (≈ 9.01 µg/mL)
S. aureus 272123 (MRSA); [19]
  MIC: > 100 µM
S. aureus 272123 (MRSA); [20]
  MIC: > 100 µM
S. aureus 272123 (MRSA); [21]
  MIC: > 100 µM
[3]; [22]
  MIC: > 100 µM
[3]; [23]
  MIC: > 100 µM

## O=P(O)(O)C(O)(Cn1ccnc1)P(=O)(O)O [zol, zoledronic acid, reference compound]
[1]; [10]
  MIC: > 100 µM
[1]; [11]
  MIC: > 100 µM
[1]; [12]
  MIC: > 100 µM
[1]; [13]
  MIC: > 100 µM
[2]; [14]
  MIC: > 100 µM
[2]; [15]
  MIC: > 100 µM
[2]; [16]
  MIC: > 100 µM
[2]; [17]
  MIC: > 100 µM
S. aureus 272123 (MRSA); [18]
  MIC: > 100 µM
S. aureus 272123 (MRSA); [19]
  MIC: > 100 µM
S. aureus 272123 (MRSA); [20]
  MIC: > 100 µM
S. aureus 272123 (MRSA); [21]
  MIC: > 100 µM
[3]; [22]
  MIC: > 100 µM
[3]; [23]
  MIC: > 100 µM
